Values of other authors in US6416998B1, “Plasmid encoding a modified steroid hormone” (Baylor College of Medicine, priority 1992, dated 2002).

What was measured:
Conditions in all cases: cited from earlier work
[1] = target: T1, chicken progesterone receptor (Gallus gallus, UniProt P07812)
T1 sequence (P07812 1-786): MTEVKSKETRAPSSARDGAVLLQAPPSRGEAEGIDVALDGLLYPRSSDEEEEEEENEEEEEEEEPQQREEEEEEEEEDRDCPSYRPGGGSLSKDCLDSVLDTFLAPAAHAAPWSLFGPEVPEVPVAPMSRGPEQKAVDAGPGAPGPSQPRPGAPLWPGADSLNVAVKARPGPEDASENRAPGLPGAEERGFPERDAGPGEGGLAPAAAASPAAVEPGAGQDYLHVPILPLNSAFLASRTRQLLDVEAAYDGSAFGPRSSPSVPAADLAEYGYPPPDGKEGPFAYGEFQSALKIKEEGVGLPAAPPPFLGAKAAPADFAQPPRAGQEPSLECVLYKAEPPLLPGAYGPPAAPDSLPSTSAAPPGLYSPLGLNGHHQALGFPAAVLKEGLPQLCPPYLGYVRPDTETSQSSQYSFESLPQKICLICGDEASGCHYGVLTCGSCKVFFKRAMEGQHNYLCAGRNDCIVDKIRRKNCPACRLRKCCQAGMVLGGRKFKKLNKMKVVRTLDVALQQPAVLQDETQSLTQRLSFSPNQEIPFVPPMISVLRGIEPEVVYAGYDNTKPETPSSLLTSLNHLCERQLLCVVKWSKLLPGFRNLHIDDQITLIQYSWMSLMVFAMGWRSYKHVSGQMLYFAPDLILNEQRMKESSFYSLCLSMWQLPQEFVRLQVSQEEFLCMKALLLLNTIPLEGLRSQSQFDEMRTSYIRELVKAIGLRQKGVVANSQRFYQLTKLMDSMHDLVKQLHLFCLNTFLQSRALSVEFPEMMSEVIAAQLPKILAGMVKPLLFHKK

[2] = target: T2, rat progesterone receptor (Rattus norvegicus, UniProt Q63449)
T2 sequence (Q63449 1-923): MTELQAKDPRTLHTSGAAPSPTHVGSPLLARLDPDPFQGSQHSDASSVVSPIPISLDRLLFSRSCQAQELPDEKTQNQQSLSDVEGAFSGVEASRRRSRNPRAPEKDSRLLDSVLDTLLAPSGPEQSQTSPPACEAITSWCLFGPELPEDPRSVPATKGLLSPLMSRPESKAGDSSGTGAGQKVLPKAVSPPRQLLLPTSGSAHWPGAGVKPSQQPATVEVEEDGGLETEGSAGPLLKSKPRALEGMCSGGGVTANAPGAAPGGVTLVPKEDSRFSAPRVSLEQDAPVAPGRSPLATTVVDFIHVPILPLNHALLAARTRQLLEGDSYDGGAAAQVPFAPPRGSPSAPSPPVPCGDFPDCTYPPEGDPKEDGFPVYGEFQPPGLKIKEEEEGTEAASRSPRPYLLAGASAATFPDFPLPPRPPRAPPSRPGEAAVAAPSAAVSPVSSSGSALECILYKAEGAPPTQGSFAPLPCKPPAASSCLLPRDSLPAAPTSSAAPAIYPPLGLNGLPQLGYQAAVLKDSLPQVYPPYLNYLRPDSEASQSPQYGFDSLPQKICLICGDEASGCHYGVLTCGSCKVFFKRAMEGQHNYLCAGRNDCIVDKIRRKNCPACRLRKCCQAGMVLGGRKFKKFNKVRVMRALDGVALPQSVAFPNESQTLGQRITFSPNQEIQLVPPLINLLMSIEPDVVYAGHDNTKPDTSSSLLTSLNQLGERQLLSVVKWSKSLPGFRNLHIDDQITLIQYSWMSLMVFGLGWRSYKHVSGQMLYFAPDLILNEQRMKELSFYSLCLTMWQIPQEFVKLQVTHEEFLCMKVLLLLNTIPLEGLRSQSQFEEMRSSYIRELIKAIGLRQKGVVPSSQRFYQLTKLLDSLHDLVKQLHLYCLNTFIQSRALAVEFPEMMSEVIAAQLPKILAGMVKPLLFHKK

[3] = target: T3, human progesterone receptor (Homo sapiens, UniProt P06401)
T3 sequence (P06401 1-933): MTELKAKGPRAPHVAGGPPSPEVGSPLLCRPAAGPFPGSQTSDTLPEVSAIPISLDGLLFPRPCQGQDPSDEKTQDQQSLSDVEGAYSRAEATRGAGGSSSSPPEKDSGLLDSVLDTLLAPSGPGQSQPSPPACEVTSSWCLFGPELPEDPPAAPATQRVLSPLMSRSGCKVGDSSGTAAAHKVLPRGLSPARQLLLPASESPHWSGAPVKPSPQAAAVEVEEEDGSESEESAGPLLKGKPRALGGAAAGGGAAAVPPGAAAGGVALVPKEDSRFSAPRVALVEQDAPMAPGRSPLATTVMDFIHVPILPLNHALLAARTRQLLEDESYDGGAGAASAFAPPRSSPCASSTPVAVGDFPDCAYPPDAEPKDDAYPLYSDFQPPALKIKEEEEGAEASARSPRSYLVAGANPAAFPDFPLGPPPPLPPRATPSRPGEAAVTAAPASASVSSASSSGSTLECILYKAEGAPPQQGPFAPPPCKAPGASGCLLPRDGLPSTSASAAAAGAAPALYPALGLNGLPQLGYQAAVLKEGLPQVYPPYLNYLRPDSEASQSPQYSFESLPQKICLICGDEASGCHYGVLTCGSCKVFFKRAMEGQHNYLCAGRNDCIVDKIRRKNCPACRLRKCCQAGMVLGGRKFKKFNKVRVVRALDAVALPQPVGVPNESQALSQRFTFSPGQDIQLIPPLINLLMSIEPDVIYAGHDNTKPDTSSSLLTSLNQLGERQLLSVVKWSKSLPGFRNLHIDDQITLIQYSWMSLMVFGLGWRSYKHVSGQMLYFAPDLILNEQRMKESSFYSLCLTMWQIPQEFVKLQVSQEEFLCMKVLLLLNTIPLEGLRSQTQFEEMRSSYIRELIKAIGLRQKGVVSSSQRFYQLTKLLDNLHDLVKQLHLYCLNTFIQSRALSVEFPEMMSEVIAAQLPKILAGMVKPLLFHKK

Vitamin D receptor = target: T4, Vitamin D receptor (Homo sapiens, UniProt P11473)
T4 sequence (P11473 1-427): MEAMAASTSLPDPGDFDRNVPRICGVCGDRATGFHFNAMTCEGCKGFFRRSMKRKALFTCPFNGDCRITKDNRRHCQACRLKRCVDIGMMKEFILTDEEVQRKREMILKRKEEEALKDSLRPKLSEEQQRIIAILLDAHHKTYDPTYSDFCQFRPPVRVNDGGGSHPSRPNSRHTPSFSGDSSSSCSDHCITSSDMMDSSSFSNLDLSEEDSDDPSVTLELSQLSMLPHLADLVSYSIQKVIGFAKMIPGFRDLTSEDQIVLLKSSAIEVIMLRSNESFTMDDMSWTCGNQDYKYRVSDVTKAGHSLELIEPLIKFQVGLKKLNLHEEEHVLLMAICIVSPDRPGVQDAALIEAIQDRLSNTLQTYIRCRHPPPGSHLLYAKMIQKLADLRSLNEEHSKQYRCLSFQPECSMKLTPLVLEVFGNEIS

SMILES | binding [1] | binding [2] | binding [3] | receptor activation (Vitamin D receptor)
CC(=O)[C@H]1CC[C@H]2[C@@H]3CC[C@H]4CC(=O)CC[C@]4(C)[C@H]3CC[C@]12C [5α-pregnane-3,20-dione] | binds extremely well | binds extremely well | does not bind or binds very poorly | –
C=C1CC[C@H](O)C/C1=C/C=C1\CCC[C@]2(C)[C@@H]([C@H](C)CCC(O)C(C)(C)O)CC[C@@H]12 (stereo partly shown) [24,25-dihydroxy-Vitamin D] | – | – | – | does not
